# The source made the active and inactive calls. No cut-off for these calls is given here.
# Key:
# [1] = test system: Mycobacterium tuberculosis; test: Inhibition of Mycobacterium tuberculosis MTCC 300 DAH7PS expressed in Escherichia coli BL21 (DE3) using 25 to 125 uM PEP/100 uM E4P as substrate at 10 uM by spectrophotometric analysis relative to control
# [2] = test system: Mycobacterium tuberculosis; test: (§1) Inhibition of Mycobacterium tuberculosis MTCC 300 DAH7PS expressed in Escherichia coli BL21 (DE3) using 25 to 125 uM PEP/100 uM E4P as substrate by spectrophotometric analysis
# [3] = as §1
# [4] = test system: Mycobacterium tuberculosis; test: Inhibition of Mycobacterium tuberculosis MTCC 300 DAH7PS expressed in Escherichia coli BL21 (DE3) using 25 to 125 uM PEP/100 uM E4P as substrate up to 50 nM by spectrophotometric analysis
SMILES,inhibition [1] [%],inhibition [2],IC50 [3] [µM],inhibition [4]
Cc1c(C)c2c(c(C)c1O)CC[C@@](C)(CCC[C@H](C)CCC[C@H](C)CCCC(C)C)O2 [ALPHA-TOCOPHEROL],21,Dose-dependent effect,21,inactive
O=C(/C=C/c1ccc(O)c(O)c1)O[C@@H]1C[C@](O)(C(=O)O)C[C@@H](O)[C@H]1O [CHLOROGENIC ACID],9,,291,inactive
C[C@]1(O)CC[C@@H]2C(C(=O)O)=CO[C@@H](O[C@@H]3O[C@H](CO)[C@@H](O)[C@H](O)[C@H]3OC(=O)c3ccc(O)cc3)[C@@H]21 [NEGUNDOSIDE],8,,159,inactive
O=Cc1cccnc1 [NICOTINALDEHYDE],16,Dose-dependent effect,54,inactive
C[C@@H]1O[C@@H](OC[C@H]2O[C@@H](Oc3c(-c4ccc(O)c(O)c4)oc4cc(O)cc(O)c4c3=O)[C@H](O)[C@@H](O)[C@@H]2O)[C@H](O)[C@H](O)[C@H]1O [RUTIN],17,Dose-dependent effect,42,inactive
N[C@@H](Cc1ccc(O)cc1)C(=O)O [TYROSINE],41,,13,
